Data on one substance can be found in patent US11326138B2, “Cell culture device and methods of use thereof” (University of Kentucky Research Foundation, priority 2017, dated 2022).

For data set [1] the following is noted: modelled value for rhodamine in 1.5% agarose hydrogel medium; cited from earlier work.
The nature of data set [2]: Incubation of a PDMS surface in contact with rhodamine solution. Format: physicochemical. Conditions: 1.5 wt % solution of rhodamine, over 180 seconds.
A short description of data set [3]: Solute diffusion from microfluidic channels into agarose hydrogel (time-lapse fluorescence). Conditions: solution pumped through channels at 25 μL/min; 1.5 wt % agarose. Format: physicochemical.
Experimental: To illustrate a dynamic solute exchange between the hydrogel and the fluid in the microchannels, a liquid suspension of 1.5 wt % agarose in DI water was pipetted into the open reservoir of the microfluidic device. After solidification of the agarose, water containing 1.0 wt % rhodamine was introduced into the inlet using a syringe pump at a constant volumetric flowrate of 25 μL/min. Time-lapse images were taken every 30 seconds using a TI-E Nikon microscope and the fluorescent intensity was measured in the resulting images using NIS-Elements software in order to track the rhodamine diffusion from the channels into the agarose hydrogel.
Water containing 1.0 wt % rhodamine (0.48 kDa) was introduced into the microfluidic channels at a flowrate of 25 μL/min. […] Florescent intensity at two points—one directly beneath a PDMS wall and another centred beneath a microfluidic channel—was tracked over time.

For the substance rhodamine, the “diffusion coefficient D” value in data set [1] is 4×10^−6 cm^2/sec. The “diffusion into PDMS” value in data set [2] was “no detectable diffusion”. For the same substance, in data set [3], the “diffusion from microchannels into adjacent hydrogel” value was “diffused into the adjacent hydrogel”.
